Measured values from ChEMBL document CHEMBL5107956, “Natural products from mangrove sediments-derived microbes: Structural diversity, bioactivities, biosynthesis, and total synthesis” (Eur J Med Chem, 2022).
Values after ≈ are worked out from the molar mass of the structure shown.

How the values were obtained:
[1] = test system: MCF7; assay: Cytotoxicity against human MCF7 cells assessed as cell growth inhibition; format: functional, cell-based
[2] = test system: HeLa; assay: Cytotoxicity against human HeLa cells assessed as cell growth inhibition; format: functional, cell-based
[3] = test system: Candida albicans; assay: Antifungal activity against Candida albicans ATCC 10231 assessed as fungal growth inhibition by agar dilution method; format: functional

MIC [3] [µg/mL]	Structure (SMILES)	IC50 [1] [nM]	IC50 [2] [nM]
	CC[C@@H]1[C@@H](C)O[C@@](O)([C@@H](C)[C@H](O)[C@H](C)[C@H]2OC(=O)/C=C/C=C/[C@H](C)[C@@H]([C@@H](C)[C@@H](O)[C@@H](C)[C@@]3(O)C[C@@H](O[C@H]4C[C@H](O)[C@H](O)[C@H](C)O4)[C@H](CC)[C@@H](C)O3)OC(=O)/C=C/C=C/[C@@H]2C)C[C@H]1OC	190	190
	CC[C@@H]1[C@@H](C)O[C@@](O)([C@@H](C)[C@H](O)[C@H](C)[C@H]2OC(=O)/C=C/C=C/[C@H](C)[C@@H]([C@@H](C)[C@@H](O)[C@H](C)[C@@]3(O)C[C@@H](O[C@H]4C[C@H](O)[C@H](O)[C@H](C)O4)[C@H](C)[C@@H](C)O3)OC(=O)/C=C/C=C/[C@@H]2C)C[C@H]1O[C@H]1C[C@H](O)[C@H](O)[C@H](C)O1	190	190
	CC[C@@H]1[C@@H](C)O[C@@](O)([C@@H](C)[C@H](O)[C@H](C)[C@H]2OC(=O)/C=C/C=C/[C@H](C)[C@@H]([C@@H](C)[C@@H](O)[C@H](C)[C@@]3(O)C[C@@H](O[C@H]4C[C@H](O)[C@H](O)[C@H](C)O4)[C@H](CC)[C@@H](C)O3)OC(=O)/C=C/C=C/[C@@H]2C)C[C@H]1O[C@H]1C[C@H](O)[C@H](O)[C@H](C)O1	190	190
	CS[C@H]1NC(=O)[C@@](Cc2ccc(CCC=C(C)C)cc2)(SC)N(C)C1=O		4200
	CC[C@@H]1[C@@H](C)O[C@@](OC)([C@@H](C)[C@H](O)[C@H](C)[C@H]2OC(=O)/C=C/C=C/[C@H](C)[C@@H]([C@@H](C)[C@@H](O)[C@H](C)[C@@]3(OC)C[C@@H](O[C@H]4C[C@H](O)[C@H](O)[C@H](C)O4)[C@H](CC)[C@@H](C)O3)OC(=O)/C(C)=C/C=C/[C@@H]2C)C[C@H]1O[C@H]1C[C@H](O)[C@H](O)[C@H](C)O1	190	190
	CC[C@@H]1[C@@H](C)O[C@@](OC)([C@@H](C)[C@H](O)[C@H](C)[C@H]2OC(=O)/C=C/C=C/[C@H](C)[C@@H]([C@@H](C)[C@@H](O)[C@H](C)[C@@]3(O)C[C@@H](O[C@H]4C[C@H](O)[C@H](O)[C@H](C)O4)[C@H](CC)[C@@H](C)O3)OC(=O)/C=C/C=C/[C@@H]2C)C[C@H]1O[C@H]1C[C@H](O)[C@H](O)[C@H](C)O1	190	190
	CC[C@@H]1[C@@H](C)O[C@@](O)([C@@H](C)[C@H](O)[C@H](C)[C@H]2OC(=O)/C=C/C=C/[C@H](C)[C@@H]([C@@H](C)[C@@H](O)[C@H](C)[C@@]3(O)C[C@@H](O[C@H]4C[C@H](O)[C@H](O)[C@H](C)O4)[C@H](CC)[C@@H](C)O3)OC(=O)/C(C)=C/C=C/[C@@H]2C)C[C@H]1O[C@H]1C[C@H](O)[C@H](O)[C@H](C)O1	190	190
1.65 (≈ 1.4 µM)	CCCC(CC)COC(=O)CC(=O)OC1CC(O)CC(O)CC(O)/C(C)=C/C=C/C(C)C(C(C)CCC/C=C/CCCN/C(N)=N/C)OC(=O)/C(C)=C/C=C/C(C)C(O)CC(O)C(C)C(O)CCC(C)C(O)CC2(O)OC(C1)CC(O)C2O (configuration not stated)		
1.65 (≈ 1.38 µM)	CCCC(CC)COC(=O)CC(=O)OC1CC(O)CC(O)CC(O)/C(C)=C/C=C/C(C)C(C(C)CCC/C=C/CCCN/C(=N/C)NC)OC(=O)/C(C)=C/C=C/C(C)C(O)CC(O)C(C)C(O)CCC(C)C(O)CC2(O)OC(C1)CC(O)C2O (configuration not stated)		
	CC[C@@H]1[C@@H](C)O[C@@](OC)([C@@H](C)[C@H](O)[C@H](C)[C@H]2OC(=O)/C=C/C=C/[C@H](C)[C@@H]([C@@H](C)[C@@H](O)[C@H](C)[C@@]3(OC)C[C@@H](O[C@H]4C[C@H](O)[C@H](O)[C@H](C)O4)[C@H](CC)[C@@H](C)O3)OC(=O)/C=C/C=C/[C@@H]2C)C[C@H]1O[C@H]1C[C@H](O)[C@H](O)[C@H](C)O1	190	190
